“And” between values parts separate entries of the source, which are not always exact repeats. Equal values may be shown once. Read-outs that look alike come from different tables or passages of the source.

The nature of data set [1]: Example 5: expected Compound I free drug 24 h AUC according to dosage regimen, by individual subject (Table B). Details: species or system human. As to conditions: for Expected Compound I free drug 24 h AUC: individual subjects. From the text: Table B provides a summary of the analysis of different Compound I dosing regimens by individual subjects enrolled the study.

A further data set can be described thus: clinical. As to conditions: human, in vivo.
The next data set concerns P. aeruginosa strains. Type of data set: cell-based, Pseudomonas aeruginosa. Here is the method: The pharmacokinetics simulation was based on data from the clinical study disclosed in Example 2.
In Vitro PK-PD Model: Six medium sized hollow-fiber cartridges (FiberCell Systems) were used per experiment. Three strains studied in duplicate were used for each experiment. Log-phase cells were inoculated and incubated for 2 hours prior to the start of treatment to achieve about 10^8 CFU/mL. Target PK parameters are listed in Tables E and F. The exposures were based on the published literatures disclosed in Example 2. Samples were collected from the central compartment for the determination of drug concentrations over a 32 hour period and were analyzed using an LC-MS/MS method.

The conditions of data set [2]: cited from earlier work.
Setting [3] is: 2 g q8h, Normal creatinine clearance.

In the case of `O=C(O)C[C@@H]1CC[C@H](NC(=O)Cc2cccs2)B(O)O1` [Compound I], the “Expected Compound I free drug 24 h AUC” value is 505.1 µg·h/mL and 427.3 µg·h/mL and 493.6 µg·h/mL and 790.7 µg·h/mL and 830.3 µg·h/mL and 719.6 µg·h/mL in data set [1] (500 mg q12h, 10-19 ml/min group); 119.3 µg·h/mL and 129.1 µg·h/mL and 115.2 µg·h/mL and 228.1 µg·h/mL and 251.1 µg·h/mL and 310.6 µg·h/mL in data set [1] (500 mg q12h, 30-49 ml/min group); 70.0 µg·h/mL and 62.7 µg·h/mL and 69.2 µg·h/mL and 88.4 µg·h/mL and 70.7 µg·h/mL and 68.1 µg·h/mL and 108.4 µg·h/mL and 108.0 µg·h/mL in data set [1] (500 mg q12h, >50 mL/min group); 252.5 µg·h/mL and 213.7 µg·h/mL and 246.8 µg·h/mL and 395.4 µg·h/mL and 415.1 µg·h/mL and 359.8 µg·h/mL in data set [1] (500 mg q24h, 10-19 ml/min group); 59.6 µg·h/mL and 64.5 µg·h/mL and 57.6 µg·h/mL and 114.0 µg·h/mL and 125.5 µg·h/mL and 155.3 µg·h/mL in data set [1] (500 mg q24h, 30-49 ml/min group); 35.0 µg·h/mL and 31.4 µg·h/mL and 34.6 µg·h/mL and 44.2 µg·h/mL and 35.4 µg·h/mL and 34.1 µg·h/mL and 54.2 µg·h/mL and 54.0 µg·h/mL in data set [1] (500 mg q24h, >50 mL/min group). Besides, the “Expected Compound I free drug 24 h AUC” value is 1515.2 µg·h/mL and 1281.9 µg·h/mL and 1480.9 µg·h/mL and 2372.2 µg·h/mL and 2490.8 µg·h/mL and 2158.8 µg·h/mL in data set [1] (1 g q8h, 10-19 ml/min group); 357.8 µg·h/mL and 387.2 µg·h/mL and 345.5 µg·h/mL and 684.2 µg·h/mL and 753.3 µg·h/mL and 931.8 µg·h/mL in data set [1] (1 g q8h, 30-49 ml/min group); 210.0 µg·h/mL and 188.2 µg·h/mL and 207.5 µg·h/mL and 265.2 µg·h/mL and 212.1 µg·h/mL and 204.3 µg·h/mL and 325.3 µg·h/mL and 324.0 µg·h/mL in data set [1] (1 g q8h, >50 mL/min group); 505.1 µg·h/mL and 427.3 µg·h/mL and 493.6 µg·h/mL and 790.7 µg·h/mL and 830.3 µg·h/mL and 719.6 µg·h/mL in data set [1] (1 g q24h, 10-19 ml/min group); 119.3 µg·h/mL and 129.1 µg·h/mL and 115.2 µg·h/mL and 228.1 µg·h/mL and 251.1 µg·h/mL and 310.6 µg·h/mL in data set [1] (1 g q24h, 30-49 ml/min group); 70.0 µg·h/mL and 62.7 µg·h/mL and 69.2 µg·h/mL and 88.4 µg·h/mL and 70.7 µg·h/mL and 68.1 µg·h/mL and 108.4 µg·h/mL and 108.0 µg·h/mL in data set [1] (1 g q24h, >50 mL/min group). In addition, the “Expected Compound I free drug 24 h AUC” value was 3030.3 µg·h/mL and 2563.8 µg·h/mL and 2961.8 µg·h/mL and 4744.3 µg·h/mL and 4981.6 µg·h/mL and 4317.6 µg·h/mL in data set [1] (2 g q8h, 10-19 ml/min group); 715.7 µg·h/mL and 774.5 µg·h/mL and 690.9 µg·h/mL and 1368.4 µg·h/mL and 1506.5 µg·h/mL and 1863.5 µg·h/mL in data set [1] (2 g q8h, 30-49 ml/min group); 420.0 µg·h/mL and 376.3 µg·h/mL and 415.0 µg·h/mL and 530.5 µg·h/mL and 424.2 µg·h/mL and 408.7 µg·h/mL and 650.6 µg·h/mL and 648.1 µg·h/mL in data set [1] (2 g q8h, >50 mL/min group). Moreover, the “Expected Compound I free drug 24 h AUC, Mean” value in data set [1] (setting [3]) amounted to 358 µg·h/mL. For the same compound, in data set [1] (setting [3]), the “Expected Compound I free drug 24 h AUC, Range” value was 284 to 470 µg·h/mL.

`C[C@@H](O)[C@H]1C(=O)N2C(C(=O)O)=C(S[C@@H]3CN[C@H](C(=O)N(C)C)C3)[C@H](C)[C@H]12` [meropenem, Meropenem]: the exposure (AUC) (as a rule, concentration integrated over time) in “clinical” (Meropenem exposure (AUC)) came out at 211 µg·h/mL. Further, the clearance – broadly, a measure of how efficiently the substance is removed, as volume per time – in the data set “clinical” (weight adjusted clearance (Cl)) is 2.33 mL/min/kg. Besides, the “efficacy, number of strains” value in the data set on P. aeruginosa strains is listed as “effective against 2 out of 3 strains”. The “Change in Log CFU over 32 hours” value in the data set on P. aeruginosa strains (P. aeruginosa PAM3377, human equivalent 2 g q8h by 3 hour infusion) was 3.7 Log CFU. Moreover, the “mean meropenem ELF concentration” value was 5.3 µg/mL in data set [2] (500 mg dose, 1 hour); 2.7 µg/mL in data set [2] (500 mg dose, 2 hours); 1.9 µg/mL in data set [2] (500 mg dose, 3 hours); 0.7 µg/mL in data set [2] (500 mg dose, 5 hours); 0.2 µg/mL in data set [2] (500 mg dose, 8 hours); 7.7 µg/mL in data set [2] (1 gram dose, 1 hour). The “mean meropenem ELF concentration” value is 4.0 µg/mL in data set [2] (1 gram dose, 2 hours); 1.7 µg/mL in data set [2] (1 gram dose, 3 hours); 0.8 µg/mL in data set [2] (1 gram dose, 5 hours); 0.03 µg/mL in data set [2] (1 gram dose, 8 hours); 2.9 µg/mL in data set [2] (2 gram dose, 1-hour sampling time); 2.8 µg/mL in data set [2] (2 gram dose, 3-hour sampling time). Further, the “intrapulmonary penetration based on AUC0-8 of ELF and total plasma” value in data set [2] (500 mg dose) is “approximately 43%”; in data set [2] (1 gram dose), around 28%.

Values taken from patent publication US20190105337A1, “METHODS OF TREATING BACTERIAL INFECTIONS” (priority 2015, published 2019).
